From patent US8841259B2, “Compositions and methods for treating vascular permeability” (Joslin Diabetes Center, priority 2005, dated 2014)

Tests used:
[1] = tested on: RVP in rat eyes injected with human vitreous; assay: Transplant of human vitreous into rat vitreous, RVP measurement; type: in vivo; settings: vitreous pretreated with 10 μM
Procedure: In these tests, 10 μl of human vitreous was injected into the rat vitreous compartment and the response on retinal vascular permeability was measured.

[2] = tested on: retinal vascular permeability (RVP) in rats; assay: Retinal vascular permeability by vitreous fluorophotometry after intravitreal injection; type: in vivo, rat; settings: for RVP (vitreous fluorescein intensity): CA-1 200 ng/eye, BSS control 7.4 au; for effect on CA-1 induced permeability: co-injection of serpin family proteins
Procedure: (§1) To measure retinal vascular permeability, 265 male Sprague Dawley and 12 male Long-Evans rats (Taconic Farms, Germantown, N.Y.) with initial body weights of 250 g were used. Experiments were performed in accordance with guidelines from the Association for Research in Vision and Opthalmology and approval from the Animal Care and Use committee of the Joslin Diabetes Center. Video fluorescein angiography was performed using a scanning laser opthalmoscope (Rodenstock Instrument, Munich, Germany) (Horio et al., Diabetologia 47:113-123 (2004)). Vitreous fluorophotometry and administration of fluorescein-dextran was performed as described previously (Aiello et al., Diabetes 46:1473-1480 (1997)).
Intravitreal injection of CA-1 increased RVP, as measured by vitreous fluorophotometry, in a dose-dependent manner (FIG. 3A), with a maximal increase of 2.3 fold (p<0.05) at 2 μg. […] The effect of a single dose of CA-1 on RVP was sustained at 59% over control at 24 hours post injection (FIG. 3B).

[3] = tested on: retinal vascular permeability (RVP) in rats; assay: Video fluorescein angiography of rat retina after intravitreal injection; type: in vivo
Procedure: as §1
Carbonic anhydrase was not detected by either mass spectroscopy or western blot analysis in the vitreous of untreated Sprague Dawley rats.

[4] = tested on: retinal vascular permeability (RVP) in rats; assay: Retinal Evans blue permeability after intravitreal lysed RBC or CA-1; type: in vivo, rat
Procedure: To prepare lysed RBCs, 3 ml rat blood in 15 ml saline was centrifuged at 1,000 g for 10 minutes; the plasma and buffy coat were discarded. The RBCs were then washed in 12 ml saline. The packed cells were frozen in liquid nitrogen for 5 minutes and then allowed to thaw at room temperature. The lysed RBCs were centrifuged at 12,000 rpm for 30 minutes. The supernatant was used for experiment. […] Approximate 21 hours later, Evans blue was injected at a dosage of 30 mg/kg. After the dye had circulated for 3 hours the rats were perfused via the left ventricle with saline. The retina were harvested and Evans blue dye was extracted by incubation in 0.3 ml formamide for 20 hours at 60° C. The extract was centrifuged (14,000 rpm for 30 minutes). The absorbance of the filtrate was measured with a spectrophotometer at 620 nm. The concentration of dye in the extracts was calculated from a standard curve.

[5] = tested on: retina of streptozotocin diabetic rats; assay: OCT imaging of retinal thickness in diabetic rats after intravitreal CA-1; type: in vivo, rat
Procedure: Rats had diabetes induced by intraperitoneal injection of streptozotocin (55 mg/kg) after overnight fast. Diabetes was confirmed after 24 hours with blood glucose greater than 250 mg/dl. After 2 weeks of diabetes, rats were injected intravitreally with CA-1 or BSS and the retinas imaged by OCT after 48 hours. Retinal ultrastructure was imaged and quantitatively measured using a high-speed, ultrahigh resolution OCT system with Fourier/spectral domain detection. Using a broadband superluminescent diode light source (Superlum Diodes Limited, Moscow, Russia) with a 155 nm bandwidth, a 2.6 μm axial resolution in tissue was achieved after digital spectral shaping. The imaging speed was 26,000 axial scans per second and the system sensitivity was 96 dB with an axial (depth) scan range of 1.3 mm in tissue. The OCT research instrument was designed for small animal retinal imaging and used a post-objective scanning microscope with a 10 μm transverse resolution. Corneal refraction was compensated with a coverslip and Goniosol (CIBA Vision Ophthalmics). Each data set consisted of 256 images with 512 axial scans per image, acquired in a raster pattern on the retina. Measurements of intraretinal layer thicknesses were performed on individual cross sectional OCT images.

[6] = tested on: blood-brain barrier permeability in rats; assay: Blood-brain barrier permeability to Evans blue after subdural infusion; type: in vivo, rat
Procedure: Approximately 22 hours later, 0.7 ml Evans blue was injected through a jugular vein catheter. After the dye circulated for 120 minutes, the rats were perfused with 50 ml saline through the left ventricle at 110 mmHg pressure. After decapitation, the brain was weighed and Evan's blue was extracted by incubating each brain in 1 ml of formamide for 20 hours at 60° C. The extract was centrifuged (14,000 rpm for 30 minutes). The absorbance of the filtrate was measured with a spectrophotometer at 620 nm. The concentration of dye in the extracts was calculated from a standard curve of Evans blue in formamide, normalized to the brain weight, and expressed per gram of tissue.

[7] = intravitreal injection of 100 μM
[8] = diabetic rat, 48 hours after intravitreal injection, OCT

Molecule: CC(=O)Nc1nnc(S(N)(=O)=O)s1 [acetazolamide, reference compound]
- effect on RVP in rat eyes injected with vitreous from noDR and NDM groups [1]: did not affect
- RVP in rat eyes injected with vitreous from subjects with PDR ([1]; reduced from 13.67±5.23, P=0.017, n=5): 9.20±3.85
- effect on basal RVP ([2]; 10 μM): no effect
- inhibition at 10 µM ([2]; Rattus norvegicus, co-injection of 10 μM, p<0.05, read-out: inhibition of CA-1 induced RVP): 68%
- effect on increase in RVP induced by CA-1 ([3]; co-injection 10 μM with CA-1): blocked
- effect on increase in RVP by lysed RBC ([4]; pretreatment of lysed RBC with 10 μM, P<0.05): blocked

Molecule: CC(=O)N[C@@H](CC(C)C)C(=O)N[C@@H](CC(C)C)C(=O)N[C@H](C=O)CCCNC(=N)N [leupeptin, reference compound]
- reduction of CA-1 stimulated RVP [2, 7]: 71%

Molecule: CA-1: carbonic anhydrase-1, extracellular erythrocyte enzyme injected as vascular permeability factor
- increase of ONL share of retinal thickness compared with BSS-treated diabetic rats ([5]; 48 hours): 17%
- increase of ONL share of retinal thickness compared with nondiabetic rats ([5]; 48 hours): 18%
- ONL share of overall retinal thickness ([5]; diabetic rat, 48 hours): 38%
- increase in outer nuclear layer (ONL) thickness vs contralateral saline vehicle eye [5, 8]: 30%
- increase in retina thickness vs contralateral saline vehicle eye [5, 8]: 12%
- Evan's blue leakage on posterior and anterior surfaces of the brain ([6]; subdural infusion, 24 hours): induced intense focal areas of Evan's blue leakage
- increase of permeability in brain compared to BSS ([6]; subdural infusion, Evan's blue quantification, P<0.05): 2.3 fold
- increase of RVP ([2]; 200 ng/eye (20 μg/ml) intravitreal, vs BSS, P<0.05): 2.4 fold
- maximal increase of RVP ([2]; at 2 μg intravitreal, p<0.05): 2.3 fold
- EC50 as final concentration in vitreous ([2]; following dilution in 100 uL of rat vitreous): about 670 pg/μL
- EC50 for increase of RVP ([2]; intravitreal injection): 67 ng
- RVP (vitreous fluorescein intensity) ([2]; intravitreal injection): 17.4 au
- RVP over control ([2]; single dose, 24 hours post injection): 59%
- retinal vascular leakage (fluorescein and 2000 kDa fluorescein-dextran) ([3]; 48 hours after intravitreal injection): focal areas of retinal vascular leakage were observed
- retinal fluorescein leakage ([3]; intravitreal 2 μg/ml, at 30 minutes, vs baseline or BSS): increased retinal fluorescein leakage
- RVP compared with eyes that received BSS ([4]; intravitreal injection, Evans blue): 3.0 fold

Molecule: Hoe 140 [reference compound]
- reduction of CA-1 stimulated RVP ([2]; co-injection with CA-1): 67%

Molecule: VEGF
- RVP (vitreous fluorescein intensity) ([2]; intravitreal injection): 14.5 au

Molecule: aprotinin [reference compound]
- reduction of CA-1 stimulated RVP [2, 7]: 50%

B1: C1-INH: Complement-1 Inhibitor, inhibits the serum protease kallikrein (protein, UniProt P05155 23-500, looked up)
Plasma protease C1 inhibitor: NPNATSSSSQDPESLQDRGEGKVATTVISKMLFVEPILEVSSLPTTNSTTNSATKITANTTDEPTTQPTTEPTTQPTIQPTQPTTQLPTDSPTQPTTGSFCPGPVTLCSDLESHSTEAVLGDALVDFSLKLYHAFSAMKKVETNMAFSPFSIASLLTQVLLGAGENTKTNLESILSYPKDFTCVHQALKGFTTKGVTSVSQIFHSPDLAIRDTFVNASRTLYSSSPRVLSNNSDANLELINTWVAKNTNNKISRLLDSLPSDTRLVLLNAIYLSAKWKTTFDPKKTRMEPFHFKNSVIKVPMMNSKKYPVAHFIDQTLKAKVGQLQLSHNLSLVILVPQNLKHRLEDMEQALSPSVFKAIMEKLEMSKFQPTLLTLPRIKVTTSQDMLSIMEKLEFFDFSYDLNLCGLTEDPDLQVSAMQHQTVLELTETGVEAAAASAISVARTLLVFEVQQPFLFVLWDQQHKFPVFMGRVYDPRA
- effect on CA-1-induced cerebral vascular permeability ([6]; subdural, with CA-1): blocked
- effect on VEGF-induced retinal fluorescein permeability ([2]; co-injection): did not affect
- reduction of CA-1 stimulated RVP ([2]; co-injection with CA-1): 92%

B2: angiotensinogen: serpin family protein (protein, UniProt P01019 25-476, looked up)
Angiotensinogen: DRVYIHPFHLVIHNESTCEQLAKANAGKPKDPTFIPAPIQAKTSPVDEKALQDQLVLVAAKLDTEDKLRAAMVGMLANFLGFRIYGMHSELWGVVHGATVLSPTAVFGTLASLYLGALDHTADRLQAILGVPWKDKNCTSRLDAHKVLSALQAVQGLLVAQGRADSQAQLLLSTVVGVFTAPGLHLKQPFVQGLALYTPVVLPRSLDFTELDVAAEKIDRFMQAVTGWKTGCSLMGASVDSTLAFNTYVHFQGKMKGFSLLAEPQEFWVDNSTSVSVPMLSGMGTFQHWSDIQDNFSVTQVPFTESACLLLIQPHYASDLDKVEGLTFQQNSLNWMKKLSPRTIHLTMPQLVLQGSYDLQDLLAQAELPAILHTELNLQKLSNDRIRVGEVLNSIFFELEADEREPTESTQQLNKPEVLEVTLNRPFLFAVYDQSATALHFLGRVANPLSTA
- effect on CA-1 induced permeability [2]: did not block

B3: PEDF: pigment epithelium-derived factor, serpin family protein (protein, UniProt P36955 20-418, looked up)
Pigment epithelium-derived …: QNPASPPEEGSPDPDSTGALVEEEDPFFKVPVNKLAAAVSNFGYDLYRVRSSTSPTTNVLLSPLSVATALSALSLGAEQRTESIIHRALYYDLISSPDIHGTYKELLDTVTAPQKNLKSASRIVFEKKLRIKSSFVAPLEKSYGTRPRVLTGNPRLDLQEINNWVQAQMKGKLARSTKEIPDEISILLLGVAHFKGQWVTKFDSRKTSLEDFYLDEERTVRVPMMSDPKAVLRYGLDSDLSCKIAQLPLTGSMSIIFFLPLKVTQNLTLIEESLTSEFIHDIDRELKTVQAVLTVPKLKLSYEGEVTKSLQEMKLQSLFDSPDFSKITGKPIKLTQVEHRAGFEWNEDGAGTTPSPGLQPAHLTFPLDYHLNQPFIFVLRDTDTGALLFIGKILDPRGP
- effect on CA-1 induced permeability [2]: did not block
